Experimental data reported in patent publication US20230183193A1, “4-DIFLUOROMETHYL BENZOYL AMIDES WITH HERBICIDAL ACTION” (BAYER CROPSCIENCE AKTIENGESELLSCHAFT, priority 2017, published 2023).

Assays:
Assay type in all cases: in vivo
[1] = test system: Abutilon theophrasti; assay: Pre-emergence herbicidal action, ABUTH; settings: dosage 320 g/ha, scored visually after 3 weeks vs untreated controls
Summary of the method: (§1)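 Weed seeds were laid out in sandy loam and covered with soil, then the soil surface was treated with an aqueous suspension or emulsion of the formulated compound containing 0.2% wetting agent. Pots stayed in the greenhouse for 3 weeks before damage was rated visually against untreated plants.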

[2] = test system: Alopecurus myosuroides; assay: Pre-emergence herbicidal action, ALOMY; settings: dosage 320 g/ha, scored visually after 3 weeks vs untreated controls
Summary of the method: as §1

[3] = test system: Amaranthus retroflexus; assay: Pre-emergence herbicidal action, AMARE; settings: dosage 320 g/ha, scored visually after 3 weeks vs untreated controls
Summary of the method: as §1

[4] = test system: Avena fatua; assay: Pre-emergence herbicidal action, AVEFA; settings: dosage 320 g/ha, scored visually after 3 weeks vs untreated controls
Summary of the method: as §1

[5] = test system: Cyperus serotinus; assay: Pre-emergence herbicidal action, CYPES; settings: dosage 320 g/ha, scored visually after 3 weeks vs untreated controls
Summary of the method: as §1

[6] = test system: Matricaria inodora; assay: Pre-emergence herbicidal action, MATIN; settings: dosage 320 g/ha, scored visually after 3 weeks vs untreated controls
Summary of the method: as §1

[7] = test system: Setaria viridis; assay: Pre-emergence herbicidal action, SETVI; settings: dosage 320 g/ha, scored visually after 3 weeks vs untreated controls
Summary of the method: as §1

[8] = test system: Stellaria media; assay: Pre-emergence herbicidal action, STEME; settings: dosage 320 g/ha, scored visually after 3 weeks vs untreated controls
Summary of the method: as §1

[9] = test system: Viola tricolor; assay: Pre-emergence herbicidal action, VIOTR; settings: dosage 320 g/ha, scored visually after 3 weeks vs untreated controls
Summary of the method: as §1

[10] = test system: Abutilon theophrasti; assay: Post-emergence herbicidal action, ABUTH; settings: 80 g/ha, Table D
Summary of the method: (§2)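 Herbicidal effect is rated visually as percent versus untreated plants (100% = dead, 0% = like control) about 3 weeks after spraying. Plants were sown in sandy loam in the greenhouse and sprayed on green parts at the one-leaf stage, 2 to 3 weeks post-sowing.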

[11] = test system: Alopecurus myosuroides; assay: Post-emergence herbicidal action, ALOMY; settings: 80 g/ha, Table C
Summary of the method: as §2

[12] = test system: Amaranthus retroflexus; assay: Post-emergence herbicidal action, AMARE; settings: 80 g/ha, Table D
Summary of the method: as §2

[13] = test system: Avena fatua; assay: Post-emergence herbicidal action, AVEFA; settings: 80 g/ha, Table C
Summary of the method: as §2

[14] = test system: Pharbitis purpureum; assay: Post-emergence herbicidal action, PHBPU; settings: 80 g/ha, Table D
Summary of the method: as §2

[15] = test system: Setaria viridis; assay: Post-emergence herbicidal action, SETVI; settings: 80 g/ha, Table C
Summary of the method: as §2

[16] = test system: Stellaria media; assay: Post-emergence herbicidal action, STEME; settings: 80 g/ha, Table D
Summary of the method: as §2

[17] = test system: Viola tricolor; assay: Post-emergence herbicidal action, VIOTR; settings: 80 g/ha, Table D
Summary of the method: as §2

[18] = test system: ECHCG; assay: Post-emergence herbicidal action, ECHCG; settings: 80 g/ha, Table C
Summary of the method: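 Weed and crop plants grown in sandy loam in the greenhouse, treated at the one-leaf stage 2–3 weeks after sowing. Damage scored visually after about 3 weeks vs untreated controls (0% = control, 100% = dead).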

Compound: CCSc1c(C(F)F)ccc(C(=O)Nc2nnnn2C)c1Br [Example 1-64]
- herbicidal activity ABUTH [1]: 100%
- herbicidal activity ALOMY [2]: 100%
- herbicidal activity AMARE [3]: 100%
- herbicidal activity AVEFA [4]: 100%
- herbicidal activity CYPES [5]: 100%
- herbicidal activity MATIN [6]: 100%
- herbicidal activity SETVI [7]: 100%
- Herbicidal activity STEME [8]: 100%
- herbicidal activity VIOTR [9]: 100%
- herbicidal activity ABUTH [10]: 100%
- herbicidal activity ALOMY [11]: 90%
- herbicidal activity AMARE [12]: 100%
- herbicidal activity AVEFA [13]: 100%
- Herbicidal activity PHBPU [14]: 100%
- herbicidal activity SETVI [15]: 90%
- Herbicidal activity STEME [16]: 100%
- herbicidal activity VIOTR [17]: 100%
- Herbicidal activity ECHCG [18]: 90%

Compound: CSc1c(C(F)F)ccc(C(=O)Nc2nnnn2C)c1C1CC1 [Example 1-25]
- herbicidal activity ABUTH [1]: 100%
- herbicidal activity ALOMY [2]: 100%
- herbicidal activity AMARE [3]: 100%
- herbicidal activity AVEFA [4]: 100%
- herbicidal activity CYPES [5]: 100%
- herbicidal activity MATIN [6]: 100%
- herbicidal activity SETVI [7]: 100%
- Herbicidal activity STEME [8]: 100%
- herbicidal activity VIOTR [9]: 100%
- herbicidal activity ABUTH [10]: 100%
- herbicidal activity ALOMY [11]: 100%
- herbicidal activity AMARE [12]: 100%
- herbicidal activity AVEFA [13]: 100%
- Herbicidal activity PHBPU [14]: 100%
- herbicidal activity SETVI [15]: 100%
- Herbicidal activity STEME [16]: 100%
- herbicidal activity VIOTR [17]: 100%
- Herbicidal activity ECHCG [18]: 100%

Compound: CSc1c(C(F)F)ccc(C(=O)Nc2nnnn2C)c1F [Example 1-37]
- herbicidal activity ABUTH [1]: 100%
- herbicidal activity ALOMY [2]: 100%
- herbicidal activity AMARE [3]: 100%
- herbicidal activity AVEFA [4]: 100%
- herbicidal activity CYPES [5]: 100%
- herbicidal activity MATIN [6]: 100%
- herbicidal activity SETVI [7]: 100%
- Herbicidal activity STEME [8]: 100%
- herbicidal activity VIOTR [9]: 100%
- herbicidal activity ABUTH [10]: 90%
- herbicidal activity ALOMY [11]: 80%
- herbicidal activity AMARE [12]: 100%
- herbicidal activity AVEFA [13]: 100%
- Herbicidal activity PHBPU [14]: 90%
- herbicidal activity SETVI [15]: 100%
- Herbicidal activity STEME [16]: 100%
- herbicidal activity VIOTR [17]: 100%
- Herbicidal activity ECHCG [18]: 100%

Compound: CCc1c(C(=O)Nc2nnc(C)o2)ccc(C(F)F)c1[S+]([O-])CC (stereo not drawn) [Example 7-15]
- herbicidal activity ABUTH [1]: 100%
- herbicidal activity ALOMY [2]: 100%
- herbicidal activity AMARE [3]: 100%
- herbicidal activity AVEFA [4]: 100%
- herbicidal activity CYPES [5]: 100%
- herbicidal activity MATIN [6]: 100%
- herbicidal activity SETVI [7]: 100%
- Herbicidal activity STEME [8]: 100%
- herbicidal activity VIOTR [9]: 100%
- herbicidal activity ABUTH [10]: 100%
- herbicidal activity ALOMY [11]: 90%
- herbicidal activity AMARE [12]: 100%
- herbicidal activity AVEFA [13]: 100%
- Herbicidal activity PHBPU [14]: 90%
- herbicidal activity SETVI [15]: 100%
- Herbicidal activity STEME [16]: 100%
- herbicidal activity VIOTR [17]: 100%
- Herbicidal activity ECHCG [18]: 90%

Compound: CSc1c(C(F)F)ccc(C(=O)Nc2nnnn2C)c1Br [Example 1-61]
- herbicidal activity ABUTH [1]: 100%
- herbicidal activity ALOMY [2]: 100%
- herbicidal activity AMARE [3]: 100%
- herbicidal activity AVEFA [4]: 100%
- herbicidal activity CYPES [5]: 100%
- herbicidal activity MATIN [6]: 100%
- herbicidal activity SETVI [7]: 100%
- Herbicidal activity STEME [8]: 100%
- herbicidal activity VIOTR [9]: 100%
- herbicidal activity ABUTH [10]: 100%
- herbicidal activity ALOMY [11]: 90%
- herbicidal activity AMARE [12]: 90%
- herbicidal activity AVEFA [13]: 100%
- Herbicidal activity PHBPU [14]: 100%
- herbicidal activity SETVI [15]: 90%
- Herbicidal activity STEME [16]: 100%
- herbicidal activity VIOTR [17]: 100%
- Herbicidal activity ECHCG [18]: 90%
